# Assay results reported in patent US20060009452A1, “Therapeutic targeting of PARC/CCL18 and its signaling in pulmonary fibrosis” (priority 2004, published 2006).
# “Also recorded” adds a separate entry of the source. *1 amine or outer side, *2 acyl side, *3 side chain or, on linkers, in order; H or OH if unused. Where a SMILES comes first, the peptide text is derived from it. Bridges are numbered along the chain shown (N, C = ends). Roman numbers before positions name the chains, in order. [ ]: non-standard residue; d: D form. Actinocin(9to1) = Cc1c2oc3c(C)ccc(C(=O)[*:1])c3nc-2c(C(=O)[*:2])c(N)c1=O; NMeV = CN[C@H](C(=O)O)C(C)C; Sar = CNCC(=O)O
# Assays:
# lung fibroblasts [1] = test: Collagen production, metabolic labeling with 14C-proline, PAGE and autoradiography; type: cell-based, human; details: for effect on PARC activated collagen production: LF2 lung fibroblasts, 14C-proline
# Experimental: Collagen Production Assays. Production of collagen was assessed using metabolic labeling with ^14C-proline and Western blotting with anti-collagen type I antibody. For metabolic labeling of collagen, fibroblasts were plated at 2×10^5 cells/well in 6-well plates (Costar, Cambridge, Mass.), in duplicates, incubated overnight in 3 ml/well of high serum medium, and then for 24 h in low-serum medium. After that, the culture medium was replaced with 1 ml/well of fresh low serum medium with or without added test substances and containing ^14C-proline at 1 μCi/ml (Amersham Pharmacia Biotech). After incubation for the desired periods of time, the cell culture supernatants were collected, rapidly frozen in liquid nitrogen and freeze-dried at −70° C. The pellets were dissolved in 100 μl of reducing Laemmli buffer per 1 ml of the cell culture supernatant, and the samples were electrophoretically separated in 7.5% acrylamide gels. Alternatively, samples were concentrated 10-fold by filter centrifugation on 30K Ultrafree-MC filters (Millipore, Bedford, Mass.). Fluorographic images were developed using EN[3H]ANCE autoradiography enhancer (NEN, Boston, Mass.). Gel images were acquired using Storm densitometer (Molecular Dynamics, Sunnyvale, Calif.), and the densities of the bands were analyzed with ImageQuant software (Molecular Dynamics). Dependence of collagen production by fibroblast cultures on the dose of PARC and duration of stimulation were evaluated using one-way ANOVA with post hoc testing.
# The identity of collagen bands was confirmed by sensitivity to pepsin and collagenase (both from Sigma) digestion. For pepsin digestion, 2 μl of 1 Macetic acid were added to 40 μl of concentrated fibroblast culture supernatant, followed by 1 μl of pepsin stock, to achieve final concentration of pepsin as indicated in the text. After 15 min of digestion at room temperature, reaction was stopped with 4 μl of 1 M Tris base and 40 μl of reducing Laemmli buffer. For collagenase digestion, 1 μl of 4 U/ml bacterial collagenase and 1 μl of protease inhibitor cocktail (Sigma) were added to 40 μl of sample and digestion performed at room temperature for 30 min. The bacterial collagenase was highly purified and had minimal clostripain and neutral protease activity, as tested by the manufacturer, according to the product information sheet.
# To test effects of rhPARC on collagen protein production by lung and dermal fibroblast cell lines, fibroblast cultures were incubated for 48 h with or without 30 ng/ml and 300 ng/ml rhPARC in the low-serum cell culture medium containing 14Cproline for metabolic labeling of collagen. Fibroblast culture supernatants contained two 14C-proline containing bands in gel electrophoresis under reducing conditions (FIGS. 13A and 13B). Digestion with chromatographically pure bacterial collagenase in the presence of protease inhibitors eliminated the bands completely (FIG. 13A). To confirm the identity of these bands, we conducted Western blotting experiments in reducing conditions of fibroblast culture supernatants using an anti-collagen type I antibody, that recognizes α1(I) collagen but not other collagen chains. Digestion with pepsin caused expected decrease in the apparent molecular weight of the immunoreactive collagen from ˜175 kD to ˜125 kD (FIG. 13C).
# lung fibroblasts [2] = test: Western blotting of fibroblast culture supernatants for collagen type I / α1(I); type: cell-based, human; details: lung fibroblast cultures, 48 h; for effect on PARC-stimulated collagen production: inhibitor plus PARC; for effect on TGF-β-stimulated collagen production: inhibitor plus TGF-β
# Experimental: Collagen Production Assays. Collagen was quantified as described elsewhere (Atamas S P et al.). Briefly, fibroblasts were cultured with β-aminopropionitrile (Sigma) to prevent collagen cross-linking, and Western blotting assays for collagen were performed using rabbit affinity purified anti-collagen type I antibody (Rockland, Gilbertsville, Pa.). Before electrophoresis, samples were reduced and denatured by boiling in Laemmli buffer containing β-mercaptoethanol. Human purified collagen type I (Southern Biotech, Birmingham, Ala.) was used as a positive control in these assays. The identity of collagen bands was confirmed by sensitivity to pepsin and collagenase (both from Sigma) digestion, as described (Atamas S P et al.). Under these conditions, pro-collagen appears as a single or double band around 175 kDa (Gaidarova S et al., Stefanovic B et al.). Images were collected using a Storm densitometer and band densities analyzed with ImageQuant software (Molecular Dynamics, Sunnyvale, Calif.).
# Western blotting assays for collagen were performed using rabbit affinity purified anti-collagen type I antibody (Rockland, Gilbertsville, Pa.). Before electrophoresis, samples were reduced and denatured by boiling in Laemmli buffer containing β-mercaptoethanol. Human purified collagen type I (Southern Biotech, Birmingham, Ala.) was used as a positive control in these assays.
# Collagen was quantified by Western blotting and the identity of collagen bands was confirmed by sensitivity to pepsin and collagenase digestion as described elsewhere in Atamas et al. (Am. J. Respir. Cell. Mol., 29:743-749 (2003)). In these assays, pro-collagen appears as a single or double band with a molecular weight of approximately 175 kDa (4,27,28).
# Smad3 = Smad3 immunoprecipitation and phosphorylation Western blot; type: cell-based, human; details: fibroblasts activated with cytokine
# Experimental: To determine if PARC stimulated phosphorylation of Sp1 and Smad3, these factors were immunoprecipitated from lysates of fibroblasts that had been activated with recombinant human PARC for up to 24 hours, and the levels of their phosphorylation were tested in Western blotting assays using anti-phosphoserine and anti-phospho-Smad2/3 antibodies. Equal loading was controlled by stripping the membranes and re-developing them with anti-Sp1, anti-Smad3 and anti-Smad2/3 antibodies (FIG. 17).
# Preparation of fibroblast lysates, immunoprecipitation of Sp1 and Smad2/3, normalization of protein concentration in the samples with BioRad assays, electrophoretic separation, Western blotting, membrane stripping and re-development with different antibodies were performed as described in Atamas et al. (Am. J. Respir. Cell. Mol., 29:743-749 (2003); J. Immunol. 168: 1139-1145 (2002); and Arthritis Rheum., 42:1168-1178 (1999)), which are hereby incorporated by reference. Rabbit antibodies for total Smad2/3 and Sp1 were from Upstate (Waltham, Masss.). Antiphospho-Smad2/3 antibody and goat antibody for total Smad3 were from Santa Cruz Biotechnology (Santa Cruz, Calif.), as was anti-gp130 antibody used to confirm equal loading of the samples. Antiphosphoserine antibody was from Biomol (Plymouth Meeting, Pa.).
# fibroblasts = details: reported for MCP-1; cited from earlier work
# α2(I) collagen mRNA = test: Real-time PCR for α2(I) collagen mRNA relative to 18S rRNA; type: cell-based, human; details: 10 μg/ml actinomycin D before stimulation with PARC
# ERK1/2 = test: Immunoblotting for phosphorylation of ERK1/2; type: cell-based, human; details: LF1, rhPARC 15 min, toxin 10 ng/ml
# [3] = molecular target: Autocrine (active) TGF-β secreted by human primary lung fibroblast cultures (human); test: cell-based or functional assay
# [4] = listed as Recombinant latency-associated peptide
compound,measurement,setting,value
rhIL-4: recombinant human interleukin 4 purchased from R&D Systems,"combined density of procollagen bands, fold higher than non-stimulated control","lung fibroblasts [1]; LF2 cells, 10 ng/ml rhIL-4, 48 h",2.9 fold
Aprotinin [reference compound],effect on PARC-stimulated collagen production,lung fibroblasts [2],failed to inhibit the effect of PARC
same,effect on TGF-β-stimulated collagen production,lung fibroblasts [2],had no effect on collagen production
"NC(=O)c1ccc(-c2nc(-c3ccc4c(c3)OCO4)c(-c3ccccn3)[nH]2)cc1 [SB431542, reference compound]",effect on TGF-β-stimulated collagen production,lung fibroblasts [2],blocked TGF-β-stimulated; also recorded: abrogated TGF-β-stimulated
rhLAP: Latency-associated peptide (R&D Systems) used for TGF-β neutralization,effect on PARC-stimulated collagen production,lung fibroblasts [2]; [4],failed to block the effect of PARC
same,effect on TGF-β-stimulated collagen production,lung fibroblasts [2],inhibited stimulating effect of TGF-β
same,effect on TGF-β-stimulated collagen production,lung fibroblasts [2]; listed as Recombinant human LAP,inhibited stimulating effect of TGF-β
same,effect on TGF-β-stimulated collagen production,lung fibroblasts [2]; [4],inhibited the effect of TGF-β
"COc1cccc(-c2cc(=O)c3ccccc3o2)c1N [PD98059, reference compound]",effect on PARC activated collagen production,lung fibroblasts [1],inhibited PARC activated collagen production
"rhTGF-β1: Recombinant human TGF-β1 from R&D Systems, positive control for fibroblast stimulation",phosphorylation of immunoprecipitated Smad3,Smad3,increased phosphorylation of Smad3
MCP-1: CC chemokine known to induce collagen production in pulmonary fibroblasts through autocrine TGF-β,concentration stimulating detectable collagen production,fibroblasts,100 to 400 ng/mL
"C[S+]([O-])c1ccc(-c2nc(-c3ccncc3)c(-c3ccc(F)cc3)[nH]2)cc1 (stereo not drawn) [SB203580, reference compound]",effect on PARC activated collagen production,lung fibroblasts [1],had no effect
"Cc1c2oc3c(C)ccc(C(=O)N[C@@H]4C(=O)N[C@H](C(C)C)C(=O)N5CCC[C@H]5C(=O)N(C)CC(=O)N(C)[C@@H](C(C)C)C(=O)O[C@@H]4C)c3nc-2c(C(=O)N[C@@H]2C(=O)N[C@H](C(C)C)C(=O)N3CCC[C@H]3C(=O)N(C)CC(=O)N(C)[C@@H](C(C)C)C(=O)O[C@@H]2C)c(N)c1=O [actinomycin D, Actinomycin D, reference compound] (I: T[dV]P[Sar][NMeV] / II: T[dV]P[Sar][NMeV]; ester I:1-I:C, II:1-II:C; linker I:N-II:N via Actinocin(9to1))",effect on PARC-induced increase in collagen mRNA,α2(I) collagen mRNA,completely abrogated the increase in collagen mRNA
Bordetella PT [reference compound],effect on PARC-stimulated ERK phosphorylation,ERK1/2,inhibited phosphorylation of ERK; also recorded: block PARC-stimulated ERK phosphorylation
"Neutralizing anti-pan-TGF-β antibody, monoclonal mouse IgG1 clone 1D11 (R&D Systems)",mink lung epithelial cell proliferation (thymidine incorporation); antibody concentration that abrogates the inhibition,[3],1 µg/mL
